Where “and” joins values, the source holds several entries; their conditions need not be identical. Equal values may be shown once. Inconclusive results and toxic doses are left out. Cut-off read from the data, not from the text of the source: active = T/C of 150% or more; inactive = T/C below 125%.
Test system: L1210 leukemia ip in BDF1 mice, survival T/C
Assay: NCI In Vivo Anticancer Drug Screen. Data for tumor model L1210 Leukemia (intraperitoneal) in B6D2F1 (BDF1) mice
Settings: endpoint: mean survival time, higher = longer survival
Procedure, shortened: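 Transplantable tumor model; survival measured in treated vs vehicle control mice. Value = treated/control.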

[1] = dose: 100.0 mg/kg/injection, schedule: Q01DX001 (ip), vehicle: other
[2] = dose: 100.0 mg/kg/injection, schedule: Q04DX003 (ip), vehicle: saline
[3] = dose: 200.0 mg/kg/injection, schedule: Q04DX003 (ip), vehicle: saline
[4] = dose: 50.0 mg/kg/injection, schedule: Q01DX009 (ip), vehicle: saline
[5] = dose: 100.0 mg/kg/injection, schedule: Q01DX001 (ip), vehicle: carboxymethylcellulose (CMC)
[6] = dose: 200.0 mg/kg/injection, schedule: Q01DX001 (ip), vehicle: carboxymethylcellulose (CMC)
[7] = dose: 400.0 mg/kg/injection, schedule: Q01DX001 (ip), vehicle: carboxymethylcellulose (CMC)
[8] = dose: 100.0 mg/kg/injection, schedule: Q01DX009 (ip), vehicle: saline
[9] = dose: 100.0 mg/kg/injection, schedule: Q01DX001 (ip), vehicle: saline
[10] = dose: 200.0 mg/kg/injection, schedule: Q01DX001 (ip), vehicle: saline
[11] = dose: 400.0 mg/kg/injection, schedule: Q01DX001 (ip), vehicle: saline

Measured: T/C

CCCCCNC(=O)CCC(=O)NCCCCC
inactive: [1] 98 % of control | dose: 200.0 mg/kg/injection, schedule: Q01DX001 (ip), vehicle: other 98 % of control | dose: 400.0 mg/kg/injection, schedule: Q01DX001 (ip), vehicle: other 98 % of control

CCOP(=S)(N/N=C1\CC2CCC1C2)OCC (stereo not given)
inactive: [1] 94 % of control

O=C1CCCCC1CC1(O)C(=O)NC2CCC(Br)CC21 (stereo not given)
inactive: dose: 200.0 mg/kg/injection, schedule: Q04DX002 (ip), vehicle: Klucel (hydroxypropylcellulose) (HPC) 100 % of control | dose: 400.0 mg/kg/injection, schedule: Q04DX002 (ip), vehicle: Klucel (hydroxypropylcellulose) (HPC) 92 % of control

O=C1OC2CC3CC2C1C3C(=O)N1CCCCC1 (stereo not given)
inactive: dose: 100.0 mg/kg/injection, schedule: Q04DX003 (ip), vehicle: saline with Tween-80 115 % of control | [2] 98 % of control | dose: 200.0 mg/kg/injection, schedule: Q04DX003 (ip), vehicle: saline with Tween-80 100 % of control | [3] 96 % of control | dose: 400.0 mg/kg/injection, schedule: Q04DX003 (ip), vehicle: saline with Tween-80 100 % of control | dose: 400.0 mg/kg/injection, schedule: Q04DX003 (ip), vehicle: saline 96 % of control

COc1cc2c(cc1OC)C(CCN1C(=O)c3ccccc3C1=O)=NCC2
inactive: dose: 25.0 mg/kg/injection, schedule: Q01DX009 (ip), vehicle: saline 97 % of control | [4] 101 % of control | [2] 97 % of control

Cc1cc(NC(=O)NCCCCCCNC(=O)Nc2cc(C)on2)no1
inactive: dose: 100.0 mg/kg/injection, schedule: Q01DX009 (ip), vehicle: other 89 % of control | dose: 200.0 mg/kg/injection, schedule: Q01DX009 (ip), vehicle: other 111 % of control | dose: 400.0 mg/kg/injection, schedule: Q01DX009 (ip), vehicle: other 100 % of control

CCOC(=O)c1ncn(-c2ccccc2)c1C(=O)OCC
inactive: dose: 100.0 mg/kg/injection, schedule: Q04DX002 (ip), vehicle: carboxymethylcellulose (CMC) 100 % of control | dose: 100.0 mg/kg/injection, schedule: Q04DX003 (ip), vehicle: carboxymethylcellulose (CMC) 96 % of control and 100 % of control | dose: 200.0 mg/kg/injection, schedule: Q04DX002 (ip), vehicle: carboxymethylcellulose (CMC) 97 % of control and 104 % of control | dose: 200.0 mg/kg/injection, schedule: Q04DX003 (ip), vehicle: carboxymethylcellulose (CMC) 96 % of control and 101 % of control | dose: 400.0 mg/kg/injection, schedule: Q04DX002 (ip), vehicle: carboxymethylcellulose (CMC) 94 % of control and 86 % of control | dose: 400.0 mg/kg/injection, schedule: Q04DX003 (ip), vehicle: carboxymethylcellulose (CMC) 94 % of control and 92 % of control

O=C1C=CC(=Nc2ccccc2Cl)O1
inactive: dose: 100.0 mg/kg/injection, schedule: Q01DX009 (ip), vehicle: saline with Tween-80 95 % of control | dose: 200.0 mg/kg/injection, schedule: Q01DX009 (ip), vehicle: saline with Tween-80 93 % of control | dose: 400.0 mg/kg/injection, schedule: Q01DX009 (ip), vehicle: saline with Tween-80 94 % of control

CC(=O)OC1CCC2(C)C(CCC3C2CC(=O)C2(C)C3CC(Sc3ccc(N(CCCl)CCCl)cc3)C2C(C)=O)C1 (stereo not given)
inactive: dose: 100.0 mg/kg/injection, schedule: Q01DX001 (sc), vehicle: steriod suspending solution 108 % of control | dose: 200.0 mg/kg/injection, schedule: Q01DX001 (sc), vehicle: steriod suspending solution 103 % of control | dose: 400.0 mg/kg/injection, schedule: Q01DX001 (sc), vehicle: steriod suspending solution 105 % of control

OCC1CCC(n2cnc3c(=S)nc[nH]c32)C1 (stereo not given)
inactive: [5] 102 % of control | [6] 102 % of control | [7] 96 % of control

CCOC(=O)Nc1ccccc1OCC
inactive: dose: 100.0 mg/kg/injection, schedule: Q01DX009 (ip), vehicle: Klucel (hydroxypropylcellulose) (HPC) 96 % of control | dose: 200.0 mg/kg/injection, schedule: Q01DX009 (ip), vehicle: Klucel (hydroxypropylcellulose) (HPC) 95 % of control | dose: 400.0 mg/kg/injection, schedule: Q01DX009 (ip), vehicle: Klucel (hydroxypropylcellulose) (HPC) 96 % of control

CCN(CC)CC(=O)NCC(CCN1CCOCC1)(CC(C)C)c1cccc2ccccc12 (stereo not given)
inactive: [4] 111 % of control | [8] 105 % of control | [2] 96 % of control | [3] 97 % of control

CCSC1OC(COS(C)(=O)=O)C(OS(C)(=O)=O)C1NC(C)=O (stereo not given)
inactive: dose: 50.0 mg/kg/injection, schedule: Q01DX001 (ip), vehicle: carboxymethylcellulose (CMC) 97 % of control | [5] 97 % of control | [6] 92 % of control | [7] 97 % of control

N#CC(NC(=O)c1ccccc1)SCc1ccccc1 (stereo not given)
inactive: dose: 25.0 mg/kg/injection, schedule: Q04DX002 (ip), vehicle: Klucel (hydroxypropylcellulose) (HPC) 107 % of control | dose: 50.0 mg/kg/injection, schedule: Q04DX002 (ip), vehicle: Klucel (hydroxypropylcellulose) (HPC) 91 % of control | dose: 100.0 mg/kg/injection, schedule: Q04DX002 (ip), vehicle: Klucel (hydroxypropylcellulose) (HPC) 91 % of control

[Mn+2].[NH-]CC(=O)O.[NH-]CC(=O)O
inactive: [9] 96 % of control

NNC(=O)C(N)Cc1ccccc1 (stereo not given)
inactive: [9] 101 % of control | [10] 105 % of control

O=Cc1cc(O)c(O)c(Br)c1
inactive: dose: 75.0 mg/kg/injection, schedule: Q04DX003 (ip), vehicle: saline 100 % of control | dose: 150.0 mg/kg/injection, schedule: Q04DX003 (ip), vehicle: saline 87 % of control | dose: 300.0 mg/kg/injection, schedule: Q04DX003 (ip), vehicle: saline 98 % of control

CN(CCN(N=O)C(N)=O)[N+](=O)[O-]
inactive: dose: 100.0 mg/kg/injection, schedule: Q04DX002 (ip), vehicle: other 98 % of control | dose: 200.0 mg/kg/injection, schedule: Q04DX002 (ip), vehicle: other 94 % of control | dose: 400.0 mg/kg/injection, schedule: Q04DX002 (ip), vehicle: other 109 % of control

Nc1ccc2oc(=O)c(C(=O)O)cc2c1
inactive: dose: 100.0 mg/kg/injection, schedule: Q01DX001 (ip), vehicle: Klucel (hydroxypropylcellulose) (HPC) 112 % of control | dose: 200.0 mg/kg/injection, schedule: Q01DX001 (ip), vehicle: Klucel (hydroxypropylcellulose) (HPC) 89 % of control

CCCCCc1cc(O)c(C2CC(C)CCC2C(C)C)c(OC(=O)c2ccc([N+](=O)[O-])cc2[N+](=O)[O-])c1 (stereo not given)
inactive: dose: 100.0 mg/kg/injection, schedule: Q04DX003 (ip), vehicle: Klucel (hydroxypropylcellulose) (HPC) 104 % of control | dose: 200.0 mg/kg/injection, schedule: Q04DX003 (ip), vehicle: Klucel (hydroxypropylcellulose) (HPC) 88 % of control | dose: 400.0 mg/kg/injection, schedule: Q04DX003 (ip), vehicle: Klucel (hydroxypropylcellulose) (HPC) 88 % of control

Clc1ccc(/C=N/Nc2c3ccccc3nc3ccccc23)c(Cl)c1
inactive: [9] 92 % of control | [10] 97 % of control | [11] 100 % of control

COc1ccc2c(c1)NCc1c(Br)cc(Br)cc1C2=O
inactive: [8] 94 % of control | dose: 200.0 mg/kg/injection, schedule: Q01DX009 (ip), vehicle: saline 93 % of control | dose: 400.0 mg/kg/injection, schedule: Q01DX009 (ip), vehicle: saline 91 % of control

Cc1ccc(S(=O)(=O)OC2CCCC3CCCCC32)cc1 (stereo not given)
inactive: [9] 98 % of control | [10] 100 % of control | [11] 98 % of control

CCOC(=O)NC(=S)[S][Sb]([S]C(=S)NC(=O)OCC)[S]c1nc2ccc(N=Nc3ccc(NS(=O)(=O)c4ccc(NC(=O)C(Cl)Cl)cc4)cc3)cc2s1
inactive: dose: 100.0 mg/kg/injection, schedule: Q01DX001 (ip), vehicle: steriod suspending solution 95 % of control | dose: 200.0 mg/kg/injection, schedule: Q01DX001 (ip), vehicle: steriod suspending solution 105 % of control | dose: 400.0 mg/kg/injection, schedule: Q01DX001 (ip), vehicle: steriod suspending solution 92 % of control

S=c1cc[nH]c2[nH]ncc12
inactive: dose: 100.0 mg/kg/injection, schedule: Q04DX002 (ip), vehicle: DMSO 94 % of control | dose: 200.0 mg/kg/injection, schedule: Q04DX002 (ip), vehicle: DMSO 97 % of control

Reference: PubChem BioAssay AID248 (DTP/NCI, 2004)
